Measured values published in PubChem BioAssay (NCI).
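Protocol summary: plate cells (96-well), add compound at 5 concentrations, incubate 48 h, interpolate endpoints linearly. TGI: concentration producing complete growth inhibition.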

How the values were obtained:
Test in all cases: growth of human tumour cells (NCI), 48 h
OVCAR-5 ovarian = tested on: OVCAR-5 ovarian
OVCAR-8 ovarian = tested on: OVCAR-8 ovarian
HS 578T breast = tested on: HS 578T breast
SF-539 CNS = tested on: SF-539 CNS
SF-268 CNS = tested on: SF-268 CNS
NCI-H226 lung = tested on: NCI-H226 lung
HT29 colon = tested on: HT29 colon
786-0 renal = tested on: 786-0 renal
NCI-H522 lung = tested on: NCI-H522 lung
RPMI-8226 leukemia = tested on: RPMI-8226 leukemia
MDA-N = tested on: MDA-N

Row | Structure (SMILES) | TGI (OVCAR-5 ovarian) [µM] | TGI (OVCAR-8 ovarian) [µM] | TGI (HS 578T breast) [µM] | TGI (SF-539 CNS) [µM] | TGI (SF-268 CNS) [µM] | TGI (NCI-H226 lung) [µM] | TGI (HT29 colon) [µM] | TGI (786-0 renal) [µM] | TGI (NCI-H522 lung) [µM] | TGI (RPMI-8226 leukemia) [µM] | TGI (MDA-N) [µM]
1 | COc1ccccc1N1C(=O)CSC1c1cccc(Oc2ccccc2)c1 (stereo unspecified) | 50.4 | 37.5 | 44.5 | 31.6 | 36.3 | 36.9 | 46.7 | 32.5 | 34.7 | – | –
2 | Cc1cc2c3c(nc2c2cc[nH]c(C)c12)CCCC3 | 13.6 | 4.96 | 4.41 | 3.72 | 14 | 29.6 | 6.25 | 3.04 | – | 4.56 | 3.32
3 | Brc1ccc2nc(-c3cccs3)nc(N3CCN(c4ccccc4)CC3)c2c1 | > 100 | > 100 | > 100 | > 100 | > 100 | > 100 | > 100 | > 100 | > 100 | > 100 | –
4 | CCCC(=O)Oc1c2ccsc2c(OC(=O)CCC)c2ccsc12 | 7.36 | 2.02 | – | 2.16 | 10.7 | 7.15 | 12 | 8.04 | 4.85 | 5.48 | 0.725
5 | O=C([O-])c1ccccc1Nc1ccccc1C(=O)[O-].[OH3+].[Zn+2] | > 100 | > 66.4 | – | > 82.9 | 40.2 | 67 | > 100 | 57.7 | 18.2 | > 100 | –
6 | Nc1nncc2n[nH]nc12 | > 100 | > 100 | > 100 | > 100 | > 100 | > 100 | > 100 | > 100 | – | > 100 | > 100
7 | C1=C2C3=[N+](CCCC3)CC2Cc2sccc21 (stereo unspecified) | > 100 | > 100 | > 100 | – | > 100 | > 100 | > 100 | > 100 | > 100 | – | > 100
8 | COC(=O)c1ccc(NCC2=CC(=O)C=CC2=O)cc1O | 36.9 | 30.8 | > 100 | 28 | > 100 | 44.7 | 38.6 | 31.4 | – | – | 35.8
9 | Cc1cn(CC2(CO)CCC2)c(=O)[nH]c1=O | > 100 | > 100 | > 100 | > 100 | – | > 100 | > 100 | > 100 | > 100 | > 100 | > 100
10 | O=c1c2ccccc2ncn1COCc1ccccc1 | > 100 | > 100 | – | > 100 | – | > 100 | > 100 | > 100 | – | – | –
11 | COC(=O)CC(C(C(=O)OCc1ccccc1)C(C)O)N1C(=O)OCC1c1ccccc1 (stereo unspecified) | – | > 100 | – | > 100 | > 100 | > 100 | > 100 | > 100 | – | > 100 | –
12 | CCCCCCCCCCCCCC(=O)OCC(CCS(=O)(=O)O[C@H]1CC[C@@]2(C)C(=CC[C@@H]3C2CC[C@]2(C)C(=O)CCC32)C1)OC(=O)CCCCCCCCCCCCC (stereo partly specified) | > 100 | – | > 100 | > 100 | > 100 | – | > 100 | > 100 | – | > 100 | > 100
13 | O=CC1=CCCN(CCc2c[nH]c3ccccc23)C1 | 126 | 206 | – | 108 | 162 | 102 | 116 | 117 | 139 | > 393 | –
14 | CC1=C(C(=O)O)N2C(=O)[C@@H](NC(=O)C(c3ccccc3)N3CSC(=S)N(C(C)C)C3)C2SC1 (stereo partly specified) | > 100 | > 100 | – | > 100 | – | – | > 100 | > 100 | 66.6 | > 100 | –
15 | CC1CN=C(N(C(=O)Nc2ccc(Cl)cc2)c2cccc(Cl)c2)S1 (stereo unspecified) | > 100 | > 100 | > 100 | > 100 | > 100 | – | > 100 | > 100 | – | – | > 100
16 | CCCNC(=O)Cn1c2c(c3ccccc31)CCCC2 | > 100 | > 100 | 68.8 | > 100 | > 100 | – | > 100 | > 100 | – | > 100 | > 100
17 | COc1ccc(N[C@H](CS(=O)c2ccc(C)cc2)C(F)(F)F)cc1 (stereo partly specified) | > 100 | > 100 | – | > 100 | – | > 100 | > 100 | > 100 | > 100 | – | > 100
18 | Cc1cc(C)n(CN(CCCCO)Cn2nc(C)cc2C)n1 | 51.1 | 41.7 | > 100 | 36.2 | 65.2 | – | 37.1 | 36.7 | 48.1 | 20.3 | 35.1
19 | CSc1c(C(N)=S)c(N)nn1-c1ccccc1 | > 100 | > 100 | > 100 | > 100 | > 100 | > 100 | > 100 | > 100 | > 100 | > 100 | –
20 | COc1c(C)c(C/C=C(\C)CC/C=C(\C)CC/C=C(\C)CC/C=C(\C)CCC=C(C)C)c(OC)c(OC)c1OC | > 100 | 46.1 | > 100 | > 100 | 39.4 | – | > 100 | 31.8 | 31.4 | – | > 100
21 | Cc1cn(C(CO)OC(CO)CN(O)C2C3CC4CC(C3)CC2C4)c(=O)[nH]c1=O (stereo unspecified) | > 100 | > 100 | > 100 | > 100 | > 100 | > 100 | > 100 | > 100 | – | > 100 | > 100
22 | CC1(C)CC[C@]2(C)[C@@H](O)C[C@]3(C)C(=CC[C@@H]4[C@@]5(C)CC[C@H](O)C(C)(C)[C@@H]5CC[C@]43C)[C@@H]2C1 | > 100 | 74.3 | 99.3 | – | > 100 | > 100 | > 100 | > 100 | > 100 | – | > 100
23 | COC(=O)Cc1cccc2c(=O)c(S(=O)(=O)NC(=O)Nc3ccc(Cl)cc3)c(-c3ccccc3)oc12 | > 100 | > 100 | > 100 | > 100 | > 100 | > 100 | > 100 | > 100 | 38.6 | – | > 100
